Source: patent publication US20240217969A1, “SUBSTITUTED PYRROLE CARBOXAMIDES, PROCESS FOR THEIR PREPARATION AND THEIR USE AS KINASE INHIBITORS” (priority 2021, published 2024)

Legend:
[1] = target: T1, aldehyde oxidases (human liver cytosol) (Homo sapiens, UniProt Q06278); type: in vitro ADME; settings: human liver cytosol 1 mg/mL, 1 μM compound; for HLC % remaining (1 h incub.): 60 min incubation; for HLC % remaining (1 h incub.) / HLC T½ min: pH 7.4, 37° C.; for IntCl (Intrinsic Clearance): half-life approach
T1 construct: added to human liver cytosol (1 mg/mL protein content); from tissue; host or cells: human liver cytosol
Procedure: The aldehyde oxidases involvement in the metabolism of the test item was determined by comparison of the intrinsic clearance values in the presence and absence of aldehyde oxidases inhibitor hydralazine hydrochloride. The purpose of the study was to evaluate the in-vitro intrinsic clearance, the metabolic stability towards aldehyde oxidases (AO) activity and the metabolism of the test item in human liver cytosol. The intrinsic clearance was determined using the half-life approach, by measuring the substrate disappearance along 60 minutes incubation with human liver cytosol. Incubations were performed at the concentration of 1 μM. […] HPLC-MS/MS was used for the detection of the compound left over during the incubation. For intrinsic clearance determination samples were analyzed by high performance liquid chromatography (HPLC) on-line with mass spectrometry (MS) equipment. For the determination of aldehyde oxidases activity (i.e. positive control) of cytosol, phthalazine was incubated with human liver cytosol in presence and absence of the aldehyde oxidases inhibitor. On the day of the incubation, the compound was dissolved in DMSO at the concentration of 10 mM. Aliquots of this solution were added to the test system to a final concentration of […]. The percentage of DMSO in the final incubates was […]. Aliquots of the test item were added to human liver cytosol (1 mg/mL protein content) in Dulbecco's buffer, pH 7.4 at 37° C., to reach final concentration of 1 μM. Incubations were performed in a 48-well plate, under shaking. At 0, 5, 10, 20, 30 and 60 minutes incubation, 50 μL aliquots of the incubate were sampled, poured in 80 μL of ice-cold acetonitrile and 20 μL of 1 μM warfarin in acetonitrile (injection control) and centrifuged at 2500 rpm for 20 minutes. The supernatant was immediately analysed by LC-MS/MS.
The test item was incubated in parallel, in duplicate, at the concentration of 1 μM in Dulbecco's buffer, pH 7.4 for 60 min at 37° C. in the presence of 10 μM hydralazine hydrochloride (aldehyde oxidases inhibitor).
The chemical stability of the test item was checked in parallel by incubating the test item in single at the concentration of 1 μM in Dulbecco's buffer, pH 7.4 for 60 min at 37° C. (negative control).
The intrinsic clearance (CLint) was calculated using the half-life approach. Half-life and CLint were determined from the concentration (area counts) remaining at the different sampling points using the LC-MS/MS method. By plotting the natural logarithmic area of the compound remaining against the time, the slope was calculated by linear regression analysis and converted into the half-life (t½) and CLint expressed as μL/min/mg protein according to the following formulae: […]

Cdc7 = Cdc7 (Homo sapiens, UniProt O00311); assay: Cdc7 biochemical assay, ADPGlo assay format
Procedure: The biochemical activity of compounds was determined by incubation with specific enzymes and substrate, followed by quantification of the ADP product. Compounds were 4-fold serially diluted from 10 to 0.0006 uM; in the case of the pre-incubation step, the enzyme is added to the inhibitor solution and the mixture is left to incubate for 30 minutes at room temperature (r.t.). The reaction started with the addition of the substrate and the ATP, when the enzyme was already present in the preincubation step, or substrate, ATP and enzyme when the preincubation step was not present. The concentrations of ATP, substrate and reaction buffer are described above. The assays were run in a robotized format on 384-well plates. […] At the end of the incubation time, an equal volume of ADPGlo Reagent 1 (Promega) was added to stop the reaction and to remove all unreacted ATP. After 60 minutes, an equal volume of ADPGlo Reagent 2 (Promega) was added to convert ADP in ATP and then ATP in light by luciferase reaction.
y=bottom+(top−bottom)/(1+10^((log IC50−x)*slope))
where x is the logarithm of the inhibitor concentration, y is the response; y starts at bottom and goes to top with a sigmoid shape.

T1 sequence (Q06278 whole entry): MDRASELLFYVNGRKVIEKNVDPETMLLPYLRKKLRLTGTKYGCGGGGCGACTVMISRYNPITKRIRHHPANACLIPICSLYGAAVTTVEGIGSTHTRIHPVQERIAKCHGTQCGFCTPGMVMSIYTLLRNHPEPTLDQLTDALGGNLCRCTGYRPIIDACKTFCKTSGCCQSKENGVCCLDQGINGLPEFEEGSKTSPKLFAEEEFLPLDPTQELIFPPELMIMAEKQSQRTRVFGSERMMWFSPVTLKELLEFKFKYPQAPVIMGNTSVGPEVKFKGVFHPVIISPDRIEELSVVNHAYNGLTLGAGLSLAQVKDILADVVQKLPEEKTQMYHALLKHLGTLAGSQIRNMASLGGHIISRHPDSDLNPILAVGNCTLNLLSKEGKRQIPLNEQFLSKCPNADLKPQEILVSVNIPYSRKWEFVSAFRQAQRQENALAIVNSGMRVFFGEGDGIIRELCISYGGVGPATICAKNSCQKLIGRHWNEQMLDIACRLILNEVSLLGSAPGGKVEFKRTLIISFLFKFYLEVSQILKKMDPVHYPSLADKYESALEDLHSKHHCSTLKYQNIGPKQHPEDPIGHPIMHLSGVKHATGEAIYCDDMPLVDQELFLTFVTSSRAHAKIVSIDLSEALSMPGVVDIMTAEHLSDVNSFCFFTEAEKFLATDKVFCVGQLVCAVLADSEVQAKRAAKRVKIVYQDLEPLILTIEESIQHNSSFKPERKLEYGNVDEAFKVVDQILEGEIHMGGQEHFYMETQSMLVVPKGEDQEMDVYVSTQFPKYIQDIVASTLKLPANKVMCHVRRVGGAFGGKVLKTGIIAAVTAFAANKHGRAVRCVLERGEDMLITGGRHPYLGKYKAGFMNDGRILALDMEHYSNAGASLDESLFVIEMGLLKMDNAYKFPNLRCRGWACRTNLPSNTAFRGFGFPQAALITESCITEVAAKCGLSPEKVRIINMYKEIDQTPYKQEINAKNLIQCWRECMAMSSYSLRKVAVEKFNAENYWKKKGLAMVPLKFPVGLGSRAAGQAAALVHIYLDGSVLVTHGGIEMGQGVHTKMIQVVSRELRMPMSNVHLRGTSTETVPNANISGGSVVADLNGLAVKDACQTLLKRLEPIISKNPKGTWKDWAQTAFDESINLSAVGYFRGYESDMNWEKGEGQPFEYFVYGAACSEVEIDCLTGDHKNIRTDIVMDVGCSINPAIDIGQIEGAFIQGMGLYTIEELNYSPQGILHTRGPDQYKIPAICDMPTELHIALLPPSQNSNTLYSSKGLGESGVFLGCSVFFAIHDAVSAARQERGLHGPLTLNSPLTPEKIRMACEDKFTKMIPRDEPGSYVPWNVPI
Chain of Cdc7 (O00311 whole entry): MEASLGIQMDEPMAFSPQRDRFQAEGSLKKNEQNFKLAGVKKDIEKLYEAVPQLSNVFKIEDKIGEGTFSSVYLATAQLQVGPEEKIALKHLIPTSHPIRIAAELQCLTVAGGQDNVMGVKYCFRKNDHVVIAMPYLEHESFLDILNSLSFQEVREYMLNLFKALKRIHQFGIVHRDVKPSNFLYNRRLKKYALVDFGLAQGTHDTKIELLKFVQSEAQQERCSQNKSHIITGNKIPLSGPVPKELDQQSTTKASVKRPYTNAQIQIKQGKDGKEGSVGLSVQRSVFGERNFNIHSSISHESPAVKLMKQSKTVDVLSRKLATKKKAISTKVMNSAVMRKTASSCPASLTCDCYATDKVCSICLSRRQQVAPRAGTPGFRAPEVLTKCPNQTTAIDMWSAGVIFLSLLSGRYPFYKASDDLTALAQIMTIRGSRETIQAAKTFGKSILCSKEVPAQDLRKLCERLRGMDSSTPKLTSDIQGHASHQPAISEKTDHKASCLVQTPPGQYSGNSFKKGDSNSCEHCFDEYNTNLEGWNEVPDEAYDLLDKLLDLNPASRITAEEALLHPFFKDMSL
Chain of Cdc7 (Q9UBU7 whole entry partner): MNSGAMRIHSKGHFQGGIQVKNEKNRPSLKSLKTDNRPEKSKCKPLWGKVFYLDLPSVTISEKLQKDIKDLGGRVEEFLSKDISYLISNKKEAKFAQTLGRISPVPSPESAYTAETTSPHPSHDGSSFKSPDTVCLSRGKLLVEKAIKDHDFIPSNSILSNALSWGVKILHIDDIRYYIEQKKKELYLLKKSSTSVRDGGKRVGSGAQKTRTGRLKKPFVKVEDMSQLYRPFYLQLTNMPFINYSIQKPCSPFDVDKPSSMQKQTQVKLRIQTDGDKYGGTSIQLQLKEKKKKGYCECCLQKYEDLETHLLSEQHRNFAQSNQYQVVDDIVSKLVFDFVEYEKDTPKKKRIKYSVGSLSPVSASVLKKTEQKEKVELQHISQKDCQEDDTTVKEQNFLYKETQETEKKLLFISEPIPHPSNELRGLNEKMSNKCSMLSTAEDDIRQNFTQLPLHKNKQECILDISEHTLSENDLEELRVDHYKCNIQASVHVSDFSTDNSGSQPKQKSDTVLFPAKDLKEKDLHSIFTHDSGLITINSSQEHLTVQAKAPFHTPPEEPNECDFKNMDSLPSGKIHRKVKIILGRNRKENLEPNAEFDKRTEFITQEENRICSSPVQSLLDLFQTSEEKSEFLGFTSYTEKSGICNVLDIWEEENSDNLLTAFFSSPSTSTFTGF

SMILES	HLC % remaining (1 h incub.) [1] [%]	IntCl (Intrinsic Clearance) [1] [μL/min/mg protein]	HLC T½ min [1] [h]	IC50 (Cdc7) [nM]
NC(=O)c1cc(-c2ccnc3[nH]ccc23)[nH]c1-c1ccc(Cl)cc1F [comp 2, 2-(4-chloro-2-fluorophenyl)-5-(1H-pyrrolo[2,3-b]pyridin-4-yl)-1H-pyrrole-3-carboxamide]	98	2.9	3.98	3
Cc1cc(C(F)(F)F)ccc1-c1[nH]c(-c2ccnc3[nH]ccc23)cc1C(N)=O [comp 11, 2-[2-methyl-4-(trifluoromethyl)phenyl]-5-(1H-pyrrolo[2,3-b]pyridin-4-yl)-1H-pyrrole-3-carboxamide]	100	2.9	3.98	7
Cc1ccc(-c2[nH]c(-c3ccnc4[nH]ccc34)cc2C(N)=O)c(Cl)c1 [comp 9, 2-(2-chloro-4-methylphenyl)-5-(1H-pyrrolo[2,3-b]pyridin-4-yl)-1H-pyrrole-3-carboxamide]	100	2.9	3.98	1
NC(=O)c1cc(-c2ccnc3[nH]ccc23)[nH]c1-c1cccc(F)c1Cl [comp 13, 2-(2-chloro-3-fluorophenyl)-5-(1H-pyrrolo[2,3-b]pyridin-4-yl)-1H-pyrrole-3-carboxamide]	100	2.9	3.98	1
NC(=O)c1cc(-c2ccnc3[nH]ccc23)[nH]c1-c1ccc(F)cc1Cl [comp 3, 2-(2-chloro-4-fluorophenyl)-5-(1H-pyrrolo[2,3-b]pyridin-4-yl)-1H-pyrrole-3-carboxamide]	97	2.9	3.98	1
NC(=O)c1cc(-c2ccnc3[nH]ccc23)[nH]c1-c1cccc(Cl)c1Cl [comp 7, 2-(2,3-dichlorophenyl)-5-(1H-pyrrolo[2,3-b]pyridin-4-yl)-1H-pyrrole-3-carboxamide]	95	2.9	3.98	1
NC(=O)c1cc(-c2ccnc3[nH]ccc23)[nH]c1-c1ccc(C(F)(F)F)cc1Cl [comp 5, 2-[2-chloro-4-(trifluoromethyl)phenyl]-5-(1H-pyrrolo[2,3-b]pyridin-4-yl)-1H-pyrrole-3-carboxamide]	100	2.9	3.98	1
NC(=O)c1cc(-c2ccnc3[nH]ccc23)[nH]c1-c1cccc(F)c1F [comp 6, 2-(2,3-difluorophenyl)-5-(1H-pyrrolo[2,3-b]pyridin-4-yl)-1H-pyrrole-3-carboxamide]	100	2.9	3.98	5
NC(=O)c1cc(-c2ccnc3[nH]ccc23)[nH]c1-c1ccc(F)cc1F [comp 4, 2-(2,4-difluorophenyl)-5-(1H-pyrrolo[2,3-b]pyridin-4-yl)-1H-pyrrole-3-carboxamide]	100	2.9	3.98	4
NC(=O)c1cc(-c2cn[nH]c2)[nH]c1-c1ccc(Cl)cc1Cl [compound 43, 2-(2,4-dichlorophenyl)-5-(1H-pyrazol-4-yl)-1H-pyrrole-3-carboxamide]	100	2.9	3.98	13
Cc1n[nH]cc1-c1cc(C(N)=O)c(-c2ccc(Cl)cc2Cl)[nH]1 [compound 44, 2-(2,4-dichlorophenyl)-5-(3-methyl-1H-pyrazol-4-yl)-1H-pyrrole-3-carboxamide]	100	2.9	3.98	48
COc1cccc(-c2[nH]c(-c3ccnc4[nH]ccc34)cc2C(N)=O)c1F [comp 12, 2-(2-fluoro-3-methoxyphenyl)-5-(1H-pyrrolo[2,3-b]pyridin-4-yl)-1H-pyrrole-3-carboxamide]	97	2.9	3.98	4
NC(=O)c1cc(-c2c[nH]nc2C(F)(F)F)[nH]c1-c1ccc(Cl)cc1Cl [compound 48, 2-(2,4-dichlorophenyl)-5-[3-(trifluoromethyl)-1H-pyrazol-4-yl]-1H-pyrrole-3-carboxamide]	100	2.9	3.98	188
